Consider eight compounds from ChEMBL document CHEMBL4311957, “Recent advances in natural antifungal flavonoids and their derivatives” (Bioorg Med Chem Lett, 2019).

One test concerns Candida tropicalis. Nature of the test: Antifungal activity against Candida tropicalis CCC 131-2000 after 48 hrs by CLSI-based broth microdilution method. The class given is functional. To be noted: CCC 131-2000, 48 h. For orientation: In broth dilution the organism is exposed to a series of concentrations in liquid medium.
A further test deals with Cryptococcus gattii. The experiment in a line: Antifungal activity against Cryptococcus gattii after 72 hrs. The class given is functional, Cryptococcus gattii VGI.
Test [1] deals with Nakaseomyces glabratus. The experiment in a line: Antifungal activity against Candida glabrata ATCC 90030. The class given is functional.
The test system of test [2] is Trichophyton mentagrophytes. The experiment in a line: Antifungal activity against Trichophyton mentagrophytes after 5 days. The class given is functional. The settings on record: 120 h.
In test [3] the test system is Cryptococcus neoformans. The experiment in a line: Antifungal activity against Cryptococcus neoformans after 72 hrs. The test is classed as functional.
For test [4], the system named is Nannizzia gypsea. The experiment in a line: Antifungal activity against Microsporum gypseum after 5 days. The test is classed as functional. To be noted: 120 h.
Test [5] deals with Trichophyton rubrum. Nature of the test: Antifungal activity against Trichophyton rubrum after 5 days. The class given is functional. To be noted: 120 h.
For test [6], the system named is Saccharomyces cerevisiae. Nature of the test: Antifungal activity against Saccharomyces cerevisiae ATCC 9763 after 48 hrs by CLSI-based broth microdilution method. The class given is functional. To be noted: ATCC 9763, 48 h.
The test system of test [7] is Cryptococcus neoformans. The experiment in a line: Antifungal activity against Cryptococcus neoformans ATCC 32264 after 48 hrs by CLSI-based broth microdilution method. The test is classed as functional. The settings on record: ATCC 32264, 48 h.
For another test, the system named is Trichophyton tonsurans. Nature of the test: Antifungal activity against Trichophyton tonsurans after 5 days. To be noted: 120 h. The test is classed as functional.
Test [8] deals with Candida albicans. Nature of the test: Antifungal activity against Candida albicans ATCC 10231 after 48 hrs by CLSI-based broth microdilution method. To be noted: ATCC 10231, 48 h. The class given is functional.
The test system of test [9] is Candida albicans. The experiment in a line: Antifungal activity against Candida albicans after 48 hrs by broth micro dilution method. The class given is functional.
The test system of test [10] is Cryptococcus neoformans. The experiment in a line: Antifungal activity against Cryptococcus neoformans after 48 hrs by broth micro dilution method. The class given is functional.
Test [11] has as its system Candida parapsilosis. Nature of the test: Antifungal activity against Candida parapsilosis after 48 hrs by broth micro dilution method. The test is classed as functional. To be noted: Lodderomyces parapsilosis.
Test [12] concerns Nakaseomyces glabratus. The experiment in a line: Antifungal activity against Candida glabrata ATCC 90030 after 18 hrs by two-fold microdilution method. The test is classed as functional. To be noted: ATCC 90030, 18 h.
Test [13] deals with Candida albicans. The experiment in a line: Antifungal activity against Candida albicans ATCC 90028 after 18 hrs by two-fold microdilution method. The class given is functional. To be noted: ATCC 90028, 18 h.
In test [14] the test system is Candida parapsilosis. The experiment in a line: Antifungal activity against Candida parapsilosis ATCC 22019 after 18 hrs by two-fold microdilution method. The test is classed as functional. The settings on record: Lodderomyces parapsilosis, ATCC 22019, 18 h.
For test [15], the system named is Candida albicans. Nature of the test: Fungicidal activity against Candida albicans ATCC 10231 after 48 hrs. The test is classed as functional. To be noted: ATCC 10231, 48 h.
For test [16], the system named is Cryptococcus neoformans. The experiment in a line: Fungicidal activity against Cryptococcus neoformans ATCC 32264 after 48 hrs. To be noted: ATCC 32264, 48 h. The test is classed as functional.
The subject of test [17] is Cryptococcus neoformans. The experiment in a line: Fungicidal activity against Cryptococcus neoformans clinical isolate after 48 hrs. The class given is functional.
The subject of test [18] is Trichophyton mentagrophytes. Nature of the test: Fungicidal activity against Trichophyton mentagrophytes ATCC 9972 after 48 hrs. To be noted: ATCC 9972, 48 h. The class given is functional.
A further test deals with Aspergillus fumigatus. The experiment in a line: Fungicidal activity against Aspergillus fumigatus ATTC 26934 after 48 hrs. The test is classed as functional. To be noted: ATTC 26934, 48 h.
Test [19] deals with Saccharomyces cerevisiae. The experiment in a line: Fungicidal activity against Saccharomyces cerevisiae ATCC 9763 after 48 hrs. The test is classed as functional. The settings on record: ATCC 9763, 48 h.
The test system of test [20] is Trichophyton rubrum. Nature of the test: Fungicidal activity against Trichophyton rubrum CCC 110 after 48 hrs. The settings on record: CCC 110, 48 h. The test is classed as functional.
Another test concerns Aspergillus niger. The experiment in a line: Fungicidal activity against Aspergillus niger ATCC 9029 after 48 hrs. The test is classed as functional. The settings on record: ATCC 9029, 48 h.
Test [21] relates to Nannizzia gypsea. Nature of the test: Fungicidal activity against Microsporum gypseum CCC 115 after 48 hrs. To be noted: CCC 115, 48 h. The class given is functional.
The test system of a further test is Aspergillus flavus. The experiment in a line: Fungicidal activity against Aspergillus flavus ATCC 9170 after 48 hrs. The class given is functional. The settings on record: ATCC 9170, 48 h.
For test [22], the system named is Cryptococcus neoformans. Nature of the test: Antifungal activity against Cryptococcus neoformans ATCC 90112 after 48 hrs by CLSI-based method. The test is classed as functional. The settings on record: ATCC 90112, 48 h.
For test [23], the system named is Candida albicans. Nature of the test: Antifungal activity against Candida albicans. The test is classed as functional, organism-based.
Test [24] deals with Candida parapsilosis. Nature of the test: Antifungal activity against Candida parapsilosis. The class given is functional. To be noted: Lodderomyces parapsilosis.

Values after ≈ are worked out from the molar mass of the structure shown.

The term MIC denotes the least concentration at which growth counts as inhibited. In the case of `O=c1c(O[C@@H]2O[C@H](CO)[C@@H](O)[C@H](O)[C@H]2O)c(-c2cc(O)c(O)c(O)c2)oc2cc(O)cc(O)c12`, the minimal inhibitory concentration (MIC) is 31.2 µg/mL (≈ 64.9 µM) with Candida tropicalis; 128 µg/mL (≈ 266 µM) with Cryptococcus gattii; 8.53 µg/mL (≈ 17.8 µM) with Nakaseomyces glabratus [1]; 4 to 128 µg/mL (≈ 8.33 to 266 µM) in [2]; 8 to 128 µg/mL (≈ 16.7 to 266 µM) with Cryptococcus neoformans [3]; 4 to 128 µg/mL (≈ 8.33 to 266 µM) against Nannizzia gypsea [4]. In addition, the minimum inhibitory concentration (MIC) with Trichophyton rubrum [5] was 4 to 128 µg/mL (≈ 8.33 to 266 µM); in the test on Saccharomyces cerevisiae [6] it was 31.2 µg/mL (≈ 64.9 µM); against Cryptococcus neoformans [7] it was 31.2 µg/mL (≈ 64.9 µM); in the test with Trichophyton tonsurans it was 4 to 128 µg/mL (≈ 8.33 to 266 µM); with Candida albicans [8], 31.2 µg/mL (≈ 64.9 µM).
Take `O=C(O)[C@H]1O[C@@H](Oc2cc(O)c3c(=O)cc(-c4ccc(O)cc4)oc3c2)[C@H](O)[C@@H](O)[C@@H]1O`: the results for the MIC in the test with Candida albicans [9], with Cryptococcus neoformans [10] and with Candida parapsilosis [11] were over 256 µg/mL, 128 µg/mL (≈ 287 µM) and 64 µg/mL (≈ 143 µM), respectively.
Regarding `CC(C)=CCc1c(O)cc(O)c2c(=O)cc(-c3ccc(O)cc3)oc12`, the MIC against Nakaseomyces glabratus [12], against Candida albicans [13] and in the test with Candida parapsilosis [14] was 15.6 µg/mL (≈ 46.2 µM) each time.
For the compound `COc1cc(O)cc2oc(-c3cc(O)c(O)c(O)c3)c(O)c(=O)c12`, the MIC was 31.2 µg/mL (≈ 93.9 µM) against Candida tropicalis; 128 µg/mL (≈ 385 µM) in the test on Cryptococcus gattii; 6.79 to 15.4 µg/mL (≈ 20.4 to 46.3 µM) against Nakaseomyces glabratus [1]; 4 to 128 µg/mL (≈ 12 to 385 µM) in [2]; 8 to 128 µg/mL (≈ 24.1 to 385 µM) with Cryptococcus neoformans [3]; 4 to 128 µg/mL (≈ 12 to 385 µM) in the test on Nannizzia gypsea [4]. Further, the minimum inhibitory concentration (MIC) against Trichophyton rubrum [5] was 4 to 128 µg/mL (≈ 12 to 385 µM); against Saccharomyces cerevisiae [6], 31.2 µg/mL (≈ 93.9 µM); against Cryptococcus neoformans [7] it was 31.2 µg/mL (≈ 93.9 µM); in the test with Trichophyton tonsurans it was 4 to 128 µg/mL (≈ 12 to 385 µM); against Candida albicans [8], 31.2 µg/mL (≈ 93.9 µM).
A word on the MFC: it is the smallest concentration meeting the test's criterion for killing the fungus. A high value points to weaker fungicidal potency. Take `Cc1ccc(C(=O)/C=C/c2ccc(O)c(OCCCN(C)C)c2)cc1`: the minimum fungicidal concentration (MFC) (in the test with Candida albicans [15]; in the test on Cryptococcus neoformans [16]; with Cryptococcus neoformans [17]; in test [18]; with Aspergillus fumigatus; against Saccharomyces cerevisiae [19]) was 62.5 µg/mL (≈ 184 µM) each time. In addition, the MFC in the test on Trichophyton rubrum [20], with Aspergillus niger, against Nannizzia gypsea [21] and against Aspergillus flavus was 62.5 µg/mL (≈ 184 µM) each time.
For `CN(C)CCCOc1cc(/C=C/C(=O)c2ccc(Cl)cc2)ccc1O`, the MFC (against Candida albicans [15]; against Cryptococcus neoformans [16]; in the test on Cryptococcus neoformans [17]; in test [18]; in the test on Aspergillus fumigatus; in the test with Saccharomyces cerevisiae [19]) was 31.2 µg/mL (≈ 86.8 µM) throughout. The MFC in the test on Trichophyton rubrum [20], in the test on Aspergillus niger, in the test on Nannizzia gypsea [21] and with Aspergillus flavus was 31.2 µg/mL (≈ 86.8 µM) in each case.
The compound `C[C@@H]1[C@H](O)[C@@H](C)/C=C/C=C/C=C/C=C/C=C/C=C/C=C/[C@H](O[C@@H]2O[C@H](C)[C@@H](O)[C@H](N)[C@@H]2O)C[C@@H]2O[C@](O)(C[C@@H](O)C[C@@H](O)[C@H](O)CC[C@@H](O)C[C@@H](O)CC(=O)O[C@H]1C)C[C@H](O)[C@H]2C(=O)O` [AMPHOTERICIN B] displayed an MIC in the test with Cryptococcus neoformans [22] of 0.03 µg/mL (≈ 0.0325 µM).
As to `O=c1c(O[C@@H]2O[C@@H](CO)[C@H](O)[C@H]2O)c(-c2ccc(O)c(O)c2)oc2cc(O)cc(O)c12` [AVICULARIN], the MIC lay within 2 to 32 µg/mL (≈ 4.6 to 73.7 µM) with Candida albicans [23], 2 to 16 µg/mL (≈ 4.6 to 36.8 µM) in the test on Aspergillus fumigatus and 8 to 32 µg/mL (≈ 18.4 to 73.7 µM) in the test with Candida parapsilosis [24].
